According to patent publication US20240158377A1, “NOVEL SALT FORMS OF A 4H-PYRAN-4-ONE STRUCTURED CYP11A1 INHIBITOR” (Orion Corporation, priority 2021, published 2024):
Where a name gives a salt, the structure may show the parent alone. Values belong to the compound of their own block, whether it stands above or below them.

Experiments:
Assay type in all cases: physicochemical
[1] = Weight loss of the salts during heating by thermogravimetric analysis (TGA); settings: for Weight loss: TGA, heating rate 10° C./min, open pan
Method: Weight loss of the salts during heating was determined by thermogravimetric analysis (TGA) thermograms collected on TGA equipment (TA Instruments). Heating rate 10° C./min, 25-300° C., open pan.
Weight loss of each salt of compound (I) during heating was determined by thermogravimetric analysis (TGA) thermograms collected on TGA equipment (TA Instruments). Heating rate 10° C./min, 25-300° C., open pan.

[2] = Chemical stability: accelerated stability study of pressed tablets, degradation product A, prediction with ASAPprime software; settings: summary statement
Method: The degradation rate of various salts of compound (I) was determined by measuring the amount of shelf-life determining degradation product 2-[(5-{[1-(methanesulfonyl)piperidin-4-yl]methoxy}-4-oxo-4H-pyran-2-yl)methyl]-2,3-dihydro-1H-isoindol-1 -one (degradation product A) from an accelerated stability study wherein samples were stored at various different temperature and relative humidity conditions. Each sample consisted of a pressed tablet containing a constant amount of the tested salt together with conventional excipients. The predicted increase (Δ %) of the degradation product A after 5 years was calculated with ASAPprime® software using the following parameters: • Bottle volume and material: 100 ml (HDPE HIS) • Desiccant: Silica (1 g) • Tablet amount: 60 • Conditions: 25° C./60% RH

[3] = Weight loss of the salts during heating by thermogravimetric analysis (TGA); settings: heating rate 10° C./min, 30-250° C., open pan, weight loss over 30-200° C.

- Weight loss ([1]; weight loss over 25-100° C.): 9.9%
SMILES: CS(=O)(=O)N1CCC(COc2coc(CN3Cc4ccccc4C3)cc2=O)CC1 [1,2-Ethanedisulfonic acid salt, 2-(isoindolin-2-ylmethyl)-5-((1-(methylsulfonyl)piperidin-4-yl)methoxy)-4H-pyran-4-one]

- Weight loss ([1]; weight loss over 25-220° C.): 0.3%
SMILES: O=S(=O)(O)c1cccc2c(S(=O)(=O)O)cccc12 [1,5-Naphthalenedisulfonic acid]

- Weight loss ([1]; weight loss over 25-225° C.): <0.1%
SMILES: O=S(=O)(O)c1ccc2ccccc2c1 [2-Naphthalenesulphonic acid]

- Weight loss ([1]; weight loss over 25-220° C.): 0.3%
SMILES: CS(=O)(=O)N1CCC(COc2coc(CN3Cc4ccccc4C3)cc2=O)CC1 [Benzenesulfonic acid salt, 2-(isoindolin-2-ylmethyl)-5-((1-(methylsulfonyl)piperidin-4-yl)methoxy)-4H-pyran-4-one]

- Weight loss ([1]; weight loss over 25-190° C.): <0.3%
SMILES: CS(=O)(=O)N1CCC(COc2coc(CN3Cc4ccccc4C3)cc2=O)CC1 [Ethanesulfonic acid salt, 2-(isoindolin-2-ylmethyl)-5-((1-(methylsulfonyl)piperidin-4-yl)methoxy)-4H-pyran-4-one]

- Weight loss ([1]; weight loss over 25-190° C.): 0.5%
SMILES: CS(=O)(=O)N1CCC(COc2coc(CN3Cc4ccccc4C3)cc2=O)CC1 [Hydrochloric acid salt (form 3), 2-(isoindolin-2-ylmethyl)-5-((1-(methylsulfonyl)piperidin-4-yl)methoxy)-4H-pyran-4-one]

- Weight loss ([1]; weight loss over 25-120° C.): 3.2%
SMILES: CS(=O)(=O)N1CCC(COc2coc(CN3Cc4ccccc4C3)cc2=O)CC1 [Maleic acid salt (form 3), 2-(isoindolin-2-ylmethyl)-5-((1-(methylsulfonyl)piperidin-4-yl)methoxy)-4H-pyran-4-one]

- Weight loss ([1]; weight loss over 25-75° C.): 5%
SMILES: CS(=O)(=O)N1CCC(COc2coc(CN3Cc4ccccc4C3)cc2=O)CC1 [Methanesulfonic acid salt, 2-(isoindolin-2-ylmethyl)-5-((1-(methylsulfonyl)piperidin-4-yl)methoxy)-4H-pyran-4-one]

- Weight loss ([1]; weight loss over 25-205° C.): 0.9%
SMILES: CS(=O)(=O)N1CCC(COc2coc(CN3Cc4ccccc4C3)cc2=O)CC1 [Nitric acid salt, 2-(isoindolin-2-ylmethyl)-5-((1-(methylsulfonyl)piperidin-4-yl)methoxy)-4H-pyran-4-one]

- Weight loss ([1]; weight loss over 25-175° C.): 0.4%
SMILES: CS(=O)(=O)N1CCC(COc2coc(CN3Cc4ccccc4C3)cc2=O)CC1 [Oxalic acid salt (form 1), 2-(isoindolin-2-ylmethyl)-5-((1-(methylsulfonyl)piperidin-4-yl)methoxy)-4H-pyran-4-one]

- Weight loss ([1]; weight loss over 25-100° C.): 8%
SMILES: CS(=O)(=O)N1CCC(COc2coc(CN3Cc4ccccc4C3)cc2=O)CC1 [Sulfuric acid salt (form 2), 2-(isoindolin-2-ylmethyl)-5-((1-(methylsulfonyl)piperidin-4-yl)methoxy)-4H-pyran-4-one]

- Weight loss ([1]; weight loss over 25-220° C.): 0.1%
SMILES: CS(=O)(=O)N1CCC(COc2coc(CN3Cc4ccccc4C3)cc2=O)CC1 [hydrobromic acid salt, 2-(isoindolin-2-ylmethyl)-5-((1-(methylsulfonyl)piperidin-4-yl)methoxy)-4H-pyran-4-one]

- weight loss during heating (in words) ([1]; crystalline salt, summary statement): low weight loss during heating
- solid-state stability in pharmaceutical dosage forms such as tablets (in words) [2]: excellent sold-state stability
- Weight loss [3]: 0.2%
SMILES: CS(=O)(=O)N1CCC(COc2coc(CN3Cc4ccccc4C3)cc2=O)CC1 [p-toluenesulfonic acid salt, 2-(isoindolin-2-ylmethyl)-5-((1-(methylsulfonyl)piperidin-4-yl)methoxy)-4H-pyran-4-one]
